GI50 and TGI data for four compounds are collected here from PubChem BioAssay (NCI).

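All cell lines were grown in 96-well plates and treated with compound for 48 hours. Here, GI50 denotes the concentration required for 50% inhibition of growth. TGI: total growth inhibition.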

Common to all, as to test: NCI-60 cell line screen, 48 h
In experiment [1] the test system is SK-OV-3 ovarian.
Experiment [2] deals with RPMI-8226 leukemia.
Experiment [3] relates to NCI-H23 lung.
The test system of experiment [4] is HCT-15 colon.
Experiment [5] deals with CAKI-1 renal.
Experiment [6] concerns SF-268 CNS.
In experiment [7] the test system is UO-31 renal.
The subject of experiment [8] is RXF 393 renal.
For experiment [9], the system named is SN12C renal.
Experiment [10] relates to SW-620 colon.

`O=C(/C=C/C12c3ccccc3C(c3ccccc31)C1C(=O)NC(=O)C12)c1ccc(Cl)cc1` (stereo not given): the GI50 in experiment [1] was 1.85 µM; in experiment [2], 1660 nM; in [3] it was 1.78 µM; in [4] it was 1.47 µM; in experiment [5], 1240 nM; in experiment [6], 1.99 µM. The GI50 in experiment [7] is 1.28 µM; in experiment [8], 1.2 µM; in experiment [9], 1.56 µM; in [10] it was 1.89 µM. The TGI came to 3.87 µM in experiment [1]; 4.5 µM in [2]; 3.83 µM in [3]; 4.07 µM in experiment [4]; 2520 nM in experiment [5]; 5.31 µM in experiment [6]. Moreover, the TGI is 2.56 µM in experiment [7], 2.56 µM in experiment [8], 3.26 µM in experiment [9] and 4.26 µM in [10].

Consider `COc1cc(-n2ccnc2)cc(OC)c1OC`, for which the GI50 in [1] was 80.2 µM; in experiment [2] it was 75600 nM; in [3] it was more than 100 µM; in experiment [4], 40 µM; in experiment [5], 26700 nM; in experiment [6], 37.9 µM. The GI50 in experiment [7] is 21.4 µM; in [8], more than 100 µM; in [9], 86 µM; in [10], more than 100 µM. The TGI is more than 100 µM in experiment [1]; more than 100 µM in [2]; more than 100 µM in experiment [3]; more than 100 µM in experiment [4]; 55800 nM in [5]; more than 100 µM in [6]. For the same compound, the TGI in [7], in experiment [8], in [9] and in experiment [10] was more than 100 µM in each case.

Turning to `O=C(NCc1ccco1)c1cccc(NC2=C(Cl)C(=O)N(Cc3ccccc3)C2=O)c1`, the GI50 in experiment [1] is 45.8 µM; in [2] it was 1060 nM; in experiment [3], 14.7 µM; in experiment [4], 4.16 µM; in experiment [5], 232 nM; in experiment [6] it was more than 100 µM. Further, the GI50 was 3.24 µM in [7], 4.22 µM in [8], 22.1 µM in experiment [9] and 11.5 µM in experiment [10]. The TGI in [1] is more than 100 µM; in experiment [2] it was 3.29 µM; in experiment [3], 33.3 µM; in experiment [4], 24 µM; in experiment [5], 1450 nM; in experiment [6] it was more than 100 µM. The TGI in experiment [7] was 18.6 µM; in experiment [8] it was 26.2 µM; in experiment [9], more than 100 µM; in experiment [10] it was more than 100 µM.

For the compound `COc1cc2c(cc1C1=NC(C)(C)CO1)OCO2`, the TGI in experiment [1] is more than 100 µM; in experiment [2] it was more than 100 µM; in experiment [3], more than 100 µM; in experiment [4] it was more than 100 µM; in [5] it was more than 100000 nM; in [6], more than 100 µM. Besides, the TGI in experiment [7], in experiment [8], in experiment [9] and in [10] was more than 100 µM throughout.
